# From patent US20100160425A1, “ANTI-ALLERGIC AGENT AND BEVERAGE/FOOD, PREPARATION FOR EXTERNAL APPLICATION OR COSMETIC COMPRISING THE AGENT” (priority 2006, published 2010)
# System: mouse bone marrow-derived cultured mast cells (BMMC)
# Assay: Inhibition of histamine release from IgE-sensitized, DNP-HSA-stimulated mouse mast cells
# Format: cell-based
# Conditions: for Ratio of Histamine Release Inhibiting Effect %: sample at 10 μg/ml, relative to distilled water control
# Description: In order to determine the anti-allergic activity (type I allergy), inhibitory activity on the release of histamine from mouse mast cells was used as an indicator. The histamine release inhibitory effect was investigated by using mouse bone marrow-derived cultured mast cells (BMMC). The cells were cultured in a RPMI1640 medium supplemented with 10% heat inactivated FBS (fetal bovine serum), 3 ng/ml of interleukin-3 (IL-3), 5 mM […], and 50 μM 2-mercaptoethanol. The cells (1×10^7 cells/ml) were sensitized anti-DNP mouse IgE antibody overnight, then, on the following day, suspended in a Tyrode solution and incubated with the test samples for 10 minutes, degranulation was induced by adding DNP-HSA (antigen) (20 minutes), and the amount of histamine in the supernatant fluid was determined using liquid chromatography. An LC-10A (manufactured by Shimadzu Corporation) was used as the measuring instrument, and […] was used as the column. Isocratic analysis was conducted under the following conditions: flow rate of 0.5 ml/min; injection amount of 20 μl; temperature of the column oven of 37° C.; detector RF ([…], em. 430 nm). The anti-allergic activity was determined to be high when the relative value to distilled water, which was a control, was lower.
Compound,"anti-allergic activity (among the compounds of general formula (1), summary statement)","histamine release inhibiting effect relative to that of EGCG3″Me (beverages containing 2 μg/ml and 10 μg/ml, FIG. 2)","histamine release inhibiting effect when added to Yabukita hot-water extract (final additive concentration 0.1 to 50 μg/ml in Yabukita hot-water extract, FIG. 4)",Ratio of Histamine Release Inhibiting Effect %
"COc1cc(C(=O)O[C@@H]2Cc3c(O)cc(O)cc3O[C@@H]2c2ccc(O)c(O)c2)cc(O)c1O [ECG3″Me, epictechin-3-O-(3-O-methyl)gallate]",especially strong anti-allergic activity,approximately 1.5 times,can increase the anti-allergic activity more than EGCG3″Me,46.79%
"epigallocatechin-3-O-(3-O-methyl)gallate [EGCG3″Me, reference compound]",–,–,–,29.6%
"epigallocatechin-3-O-gallate [EGCG, reference compound]",–,–,–,7.63%
